From paper PMC11859031, “Assessment of the In Vitro Biological Activities of Schiff Base-Synthesized Copper Oxide Nanoparticles as an Anti-Diabetic, Anti-Alzheimer, and Anti-Cancer Agent” (Pharmaceutics, 2025)
Values after ≈ are worked out from the molar mass of the structure shown.

Assays:
DPPH radical scavenging = details: mean ± SE, n = 3
Experimental: The 1,1-Diphenyl-2-picryl-hydrazyl (DPPH) radical scavenging activities were evaluated using the method described by Rahman et al. An antioxidant substance capable of donating a hydrogen atom to a solution containing DPPH- can reduce the stable free radical, causing the solution to change color from violet to pale yellow.
The remaining DPPH- radical was quantified by measuring the intensity of a light-purple colored DPPH methanol solution in the visible range at 518 nm using a spectroscopic method. Two mill iliters of a DPPH solution (100 µ M) in ethanol were mixed with 2 mL of the sample (at each concentration). The reaction mixture for each concentration was thoroughly vortexed and then incubated in the dark at room temperature for 30 minutes. The absorbance was then measured spectrophotometrically at 518 nm against a blank (ethanol). For the control, 2 mL of ethanol was added instead of the sample and run simultaneously with the test.
Ascorbic acid was used at the same concentrations as a positive control. P ercent […]
inhibition of the DPPH free radical was calculated. […]

[1] = biological target: bovine serum albumin (BSA) (Bos taurus, UniProt P02769); assay: Inhibition of protein denaturation (anti-arthritic); details: read-out: Protein Denaturation Inhib. (%)
Experimental: 3.5. Anti-arthritic activity
In the anti-arthritic activity study, this assay involved determining the percentage of […]
anti-inflammatory drug, as prepared according to Meera et al. The protein denaturation percentage was measured by mixing 0.5mL of the test control solution, prepared by combining 0.45 mL of bovine serum albumin (BSA) (5% w/v aqueous solution) with 0.05 mL of distilled water. Then, 0.05 mL of the test solution was added to 0.45 mL of distilled water to form the product control (0.5 mL). The […]
pH value in all prepared solutions was adjusted to 6.3 using HCl (1N). All the samples were incubated at 37 °C for 20 min, and the temperature was then increased to 57 °C, maintaining the samples at that degree for 3 min. After cooling, 2.5 mL of phosphate buffer was added to the prepared solutions. The absorbance was […]
protein denaturation inhibition can be calculated. Proteinase inhibitory activity was assessed by combining the test sample (1 mL) with a reaction mixture containing 0.06 mg trypsin dissolved in 1 mL of 20 mM Tris HCl buffer (pH 7.4). The mixture was then incubated for 5 minutes at 37°C, followed by the addition of 1 mL of casein (0.8% w/v). […] The cloudy suspension was then centrifuged, and the absorbance of the supernatant was measured at 210 nm against buffer as the blank. The percentage of proteinase inhibitory activity was then calculated. […]

COX-1 = biological target: T1, COX-1 (Ovis aries, UniProt P05979); assay: COX-1 inhibition assay (Cayman kit); type: biochemical, ovine; details: mean ± SE, n = 3
T1 construct: purchased Cayman 560131
T1 sequence (P05979 25-600): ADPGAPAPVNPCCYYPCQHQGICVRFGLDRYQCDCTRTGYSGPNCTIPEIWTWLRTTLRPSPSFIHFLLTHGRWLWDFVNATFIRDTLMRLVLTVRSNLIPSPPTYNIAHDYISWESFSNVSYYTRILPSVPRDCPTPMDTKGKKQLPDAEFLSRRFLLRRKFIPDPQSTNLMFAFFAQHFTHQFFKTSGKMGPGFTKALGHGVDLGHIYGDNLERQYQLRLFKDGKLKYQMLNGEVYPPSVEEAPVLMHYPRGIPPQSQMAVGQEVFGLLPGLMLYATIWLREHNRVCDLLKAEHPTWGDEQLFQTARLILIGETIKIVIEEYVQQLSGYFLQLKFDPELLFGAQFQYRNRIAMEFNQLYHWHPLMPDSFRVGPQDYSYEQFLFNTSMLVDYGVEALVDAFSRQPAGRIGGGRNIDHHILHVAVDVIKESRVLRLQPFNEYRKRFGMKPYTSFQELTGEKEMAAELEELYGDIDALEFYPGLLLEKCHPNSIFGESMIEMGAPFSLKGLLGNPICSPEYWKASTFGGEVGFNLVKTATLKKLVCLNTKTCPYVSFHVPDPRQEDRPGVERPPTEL

[2] = test system: caspase-3 in HepG-2 cells; assay: Caspase-3 ELISA in treated HepG-2 cells; type: cell-based, human; details: HepG-2 cells treated at the IC50 value, mean ± SE, n = 3
Experimental: Following the treatment of HepG-2, Caco-2, A549, and BJ-1 cells with the SB-CuO-NPs at their respective IC50 values, as illustrated in Figure 9 and detailed in Table 5, an assessment of the activities of the caspase-3 and Bcl-2 enzymes was conducted in the treated cells. […] This mechanism ultimately triggers apoptosis. Additionally, the increased activity of caspase-3 results in a decrease in the expression of cyclin D1 and CDK-2 mRNA, thereby promoting the arrest of the G1 phase of the cell cycle. Othman et al. further noted that the biosynthesized M-NPs facilitate apoptosis by inhibiting the expression of the PI3K/AKT and Ras/Raf/ERK protein signaling pathways.
Invitrogen Corporation, following the manufacturer's instructions.

[3] = test system: human colon cancer (Caco-2) cell line; assay: MTT cytotoxicity, Caco-2

bovine serum albumin (BSA), sequence (P02769 25-607): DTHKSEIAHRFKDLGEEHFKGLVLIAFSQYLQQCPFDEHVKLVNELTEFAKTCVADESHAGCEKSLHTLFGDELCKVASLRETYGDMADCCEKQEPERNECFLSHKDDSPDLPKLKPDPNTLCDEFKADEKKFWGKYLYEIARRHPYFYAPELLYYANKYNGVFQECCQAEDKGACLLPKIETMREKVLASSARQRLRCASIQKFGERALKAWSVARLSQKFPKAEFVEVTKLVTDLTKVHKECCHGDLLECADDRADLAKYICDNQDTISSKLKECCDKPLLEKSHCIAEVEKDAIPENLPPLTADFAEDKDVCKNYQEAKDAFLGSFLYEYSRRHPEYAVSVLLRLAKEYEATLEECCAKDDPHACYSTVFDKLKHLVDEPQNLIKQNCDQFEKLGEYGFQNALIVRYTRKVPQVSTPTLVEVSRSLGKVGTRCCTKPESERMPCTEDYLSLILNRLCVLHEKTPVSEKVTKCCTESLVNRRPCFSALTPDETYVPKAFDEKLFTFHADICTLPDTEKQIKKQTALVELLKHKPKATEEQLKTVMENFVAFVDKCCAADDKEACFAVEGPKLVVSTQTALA

With `Cc1nn(-c2ccccc2)c(Cl)c1C=NN=C1C(=O)Nc2ccccc21` [SB] the “Scavenging activity DPPH Inhib. (%)” value (DPPH radical scavenging; at 100 µg/mL) was 44.54 ± 0.18%, the “Scavenging activity DPPH IC50” value (DPPH radical scavenging) was 6.24 ± 0.01 µg/mL and the inhibition at 100 µg/mL [1] was 26.11 ± 0.13%. The inhibition at 100 µg/mL (COX-1; at 100 µg/mL, read-out: COX-1 Inhib. (%)) was 31.61 ± 0.18%, the IC50 (COX-1) was 27.1 µM and the Caspase-3 [2] was 165.55 ± 1.29 pg/mL. The viability at 31.13 µg/mL ([3]; Caco-2) was 86%, the viability at 62.5 µg/mL ([3]; Caco-2) was 72.2% and the viability at 125 µg/mL ([3]; Caco-2) was 48.6%. For the same compound, the viability at 250 µg/mL ([3]; Caco-2) was 38.4%, the viability at 500 µg/mL ([3]; Caco-2) was 18.6% and the IC50 ([3]; Caco-2, 48 h, read-out: Median Inhibitory Concentration (IC50) Caco-2) was 115 ± 3.25 µg/mL (≈ 317 µM).
